≈ marks a conversion by molar mass, not a printed value. Calls of active or inactive are those of the source. No cut-off for these calls is given here.
Tests used:
[1] = molecular target: T1, Extracellular calcium-sensing receptor (Homo sapiens, UniProt P41180); assay: Antagonist activity at human CaSR expressed in CCL39 cells assessed as inhibition of extracellular calcium-induced intracellular calcium transient by FLIPR assay; assay type: functional, cell-based
T1 sequence (P41180 whole entry): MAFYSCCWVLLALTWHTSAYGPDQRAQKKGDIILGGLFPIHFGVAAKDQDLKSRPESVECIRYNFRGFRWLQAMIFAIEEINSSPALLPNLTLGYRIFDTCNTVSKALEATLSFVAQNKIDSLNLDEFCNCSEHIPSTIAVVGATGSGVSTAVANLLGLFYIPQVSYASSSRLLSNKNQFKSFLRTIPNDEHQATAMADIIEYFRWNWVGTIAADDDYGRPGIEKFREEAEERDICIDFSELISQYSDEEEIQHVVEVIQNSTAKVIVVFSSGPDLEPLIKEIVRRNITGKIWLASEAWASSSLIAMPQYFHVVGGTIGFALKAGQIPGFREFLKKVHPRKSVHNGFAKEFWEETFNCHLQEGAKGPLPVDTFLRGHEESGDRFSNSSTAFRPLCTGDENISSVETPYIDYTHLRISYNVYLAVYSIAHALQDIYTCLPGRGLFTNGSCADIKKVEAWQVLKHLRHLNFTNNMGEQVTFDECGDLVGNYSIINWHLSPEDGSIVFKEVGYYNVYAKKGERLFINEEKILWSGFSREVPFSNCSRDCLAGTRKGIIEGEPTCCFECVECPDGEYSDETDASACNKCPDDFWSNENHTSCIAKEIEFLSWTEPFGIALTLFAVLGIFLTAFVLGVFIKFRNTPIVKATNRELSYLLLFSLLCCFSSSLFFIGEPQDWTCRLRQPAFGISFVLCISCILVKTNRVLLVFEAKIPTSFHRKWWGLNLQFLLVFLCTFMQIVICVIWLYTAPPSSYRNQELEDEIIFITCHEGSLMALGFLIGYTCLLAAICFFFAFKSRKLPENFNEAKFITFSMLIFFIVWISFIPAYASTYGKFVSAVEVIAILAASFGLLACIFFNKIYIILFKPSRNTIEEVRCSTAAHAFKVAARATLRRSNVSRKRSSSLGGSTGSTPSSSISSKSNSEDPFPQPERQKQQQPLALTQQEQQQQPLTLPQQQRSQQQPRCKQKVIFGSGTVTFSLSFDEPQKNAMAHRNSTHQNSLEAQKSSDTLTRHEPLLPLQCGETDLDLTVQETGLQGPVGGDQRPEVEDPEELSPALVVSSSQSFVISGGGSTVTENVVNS

[2] = system: Rattus norvegicus; assay: Induction of PTH release in iv dosed Wistar rat by radioimmunoassay; assay type: functional, organism-based
[3] = Aqueous solubility at pH 1.0; assay type: physicochemical
[4] = Aqueous solubility at pH 6.8; assay type: physicochemical
[5] = Oral bioavailability in rat; assay type: ADME, organism-based; settings: in vivo
[6] = system: Rattus norvegicus; assay: Induction of PTH release in Wistar rat assessed as PTH Cmax in blood at 30 mg/kg, po by radioimmunoassay; assay type: functional
[7] = system: Canis familiaris; assay: Induction of PTH release in Beagle dog at 3 mg/kg, po by radioimmunoassay; assay type: functional, Canis lupus familiaris
[8] = system: Canis familiaris; assay: Induction of PTH release in Beagle dog assessed as PTH Cmax in blood at 0.3 mg/kg, po by radioimmunoassay; assay type: functional, Canis lupus familiaris
[9] = system: Rattus norvegicus; assay: Induction of PTH release in Wistar rat assessed as PTH Cmax in blood at 3 mg/kg, po by radioimmunoassay; assay type: functional

In the case of `COc1ccc2c(c1)c(-c1ccc(C(=O)O)cc1)nc(=O)n2C(C)C`, the IC50 [1] is reported as greater than 30000 nM and the Activity [2] is reported as “Active”.

In the case of `C=CCOc1ccc2c(c1)c(-c1ccc(C(C)C)cc1)nc(=O)n2C(C)C`, the IC50 [1] is reported as 180 nM and the Activity [2] is reported as “Active”.

With `COc1ccc2c(c1)c(-c1ccc(C3CC3)cc1)nc(=O)n2C(C)C` the IC50 [1] was 3300 nM and the Activity [2] was “Active”.

With `CCCc1c(O)ccc2c1c(-c1ccc(C(C)C)cc1)nc(=O)n2Cc1ccccc1` the IC50 [1] was 6.6 nM and the Activity [2] was “Active”.

In the case of `C#CCOc1ccc2c(c1)c(-c1ccc(C(C)C)cc1)nc(=O)n2Cc1ccc(OCC(=O)O)cc1`, the IC50 [1] is reported as 12.6 nM and the Activity [2] is reported as “Active”.

With `C=CCc1c(O)ccc2c1c(-c1ccc(C(C)C)cc1)nc(=O)n2Cc1ccccc1` the IC50 [1] was 3.9 nM and the Activity [2] was “Active”.

With `C#CCOc1ccc2c(c1)c(-c1ccc(C(C)C)cc1)nc(=O)n2Cc1cccc(CC)c1` the IC50 [1] was 13 nM and the Activity [2] was “Active”.

With `CC(C)c1ccc(-c2nc(=O)n(C(C)C)c3ccc(NCc4ccccc4)cc23)cc1` the IC50 [1] was 10000 nM and the Activity [2] was “Active”.

With `C#CCOc1ccc2c(c1)c(-c1ccc(C(C)C)cc1)nc(=O)n2Cc1cccc(NC(=O)CN2CCN(CCCN(C)C)CC2)c1` the solubility [3] was greater than 200 µg/mL, the IC50 [1] was 8.1 nM and the Activity [2] was “Active”. The solubility [4] was 100 µg/mL (≈ 158 µM) and the bioavailability [5] was 8%.

For `CCc1ccc(-c2nc(=O)n(C(C)C)c3ccc(OC)cc23)cc1`, the IC50 [1] was 2100 nM and the Activity [2] was “Active”.

With `CCCNc1ccc2c(c1)c(-c1ccc(C(C)C)cc1)nc(=O)n2C(C)C` the IC50 [1] was 1100 nM and the Activity [2] was “Active”.

With `COc1ccc2c(c1)c(-c1ccc(OC(C)C)cc1)nc(=O)n2C(C)C` the IC50 [1] was greater than 30000 nM and the Activity [2] was “Active”.

For `C#CCOc1ccc2c(c1)c(-c1ccc(C(C)C)cc1)nc(=O)n2Cc1cccc(OCC(=O)O)c1`, the IC50 [1] was 3.4 nM and the Activity [2] was “Active”.

For `CCNc1ccc2c(c1)c(-c1ccc(C(C)C)cc1)nc(=O)n2C(C)C`, the IC50 [1] was 460 nM and the Activity [2] was “Active”.

With `C#CCOc1ccc2c(c1)c(-c1ccc(C(C)C)cc1)nc(=O)n2Cc1ccc(C)cc1` the IC50 [1] was 1.6 nM and the Activity [2] was “Active”.

For `COC(=O)c1ccc(-c2nc(=O)n(C(C)C)c3ccc(OC)cc23)cc1`, the IC50 [1] was greater than 30000 nM and the Activity [2] was “Active”.

In the case of `C#CCOc1ccc2c(c1)c(-c1ccc(C(C)C)cc1)nc(=O)n2Cc1cccc(NC(=O)CN2CCN(CCOC)CC2)c1`, the solubility [3] is reported as greater than 200 µg/mL, the IC50 [1] is reported as 13 nM and the Activity [2] is reported as “Active”. The solubility [4] was 20 µg/mL (≈ 32.9 µM) and the bioavailability [5] was 1%.

In the case of `CC#CCOc1ccc2c(c1)c(-c1ccc(C(C)C)cc1)nc(=O)n2C(C)C`, the IC50 [1] is reported as 170 nM and the Activity [2] is reported as “Active”.

With `CC(C)c1ccc(-c2nc(=O)n(C(C)C)c3ccc(O)cc23)cc1` the IC50 [1] was 15900 nM and the Activity [2] was “Active”.

For `CCOc1ccc2c(c1)c(-c1ccc(C(C)C)cc1)nc(=O)n2C(C)C`, the IC50 [1] was 2200 nM and the Activity [2] was “Active”.

For `CC(C)c1ccc(-c2nc(=O)n(Cc3ccccc3)c3ccc(O)c(CC4CC4)c23)cc1`, the IC50 [1] was 2.5 nM and the Activity [2] was “Active”.

In the case of `C#CCOc1ccc2c(c1)c(-c1ccc(C(C)C)cc1)nc(=O)n2C(C)C`, the solubility [3] is reported as 20 µg/mL (≈ 55.5 µM), the IC50 [1] is reported as 9 nM and the Activity [6] is reported as 150 pgequiv/ml. For the same molecule, the Activity [7] was 50 pg·h/mL, the Activity [2] was “Active” and the Activity [8] was 300 pgequiv/ml. For the same molecule, the Activity [9] was 280 pgequiv/ml, the solubility [4] was 20 µg/mL (≈ 55.5 µM) and the bioavailability [5] was 20%.

In the case of `COc1ccc2c(c1)c(-c1ccc(C)cc1)nc(=O)n2C(C)C`, the IC50 [1] is reported as greater than 30000 nM and the Activity [2] is reported as “Active”.

For `CCCCOc1ccc2c(c1)c(-c1ccc(C(C)C)cc1)nc(=O)n2C(C)C`, the IC50 [1] was 3700 nM and the Activity [2] was “Active”.

In the case of `C#CCOc1ccc2c(c1)c(-c1ccc(C(C)C)cc1)nc(=O)n2Cc1cccc(OC)c1`, the IC50 [1] is reported as 2.7 nM and the Activity [2] is reported as “Active”.

For `C#CCOc1ccc2c(c1)c(-c1ccc(C(C)C)cc1)nc(=O)n2Cc1ccc(CC)cc1`, the IC50 [1] was 4.2 nM and the Activity [2] was “Active”.

In the case of `C#CCOc1ccc2c(c1)c(-c1ccc(C(C)C)cc1)nc(=O)n2Cc1ccc(OCC)cc1`, the IC50 [1] is reported as 19 nM and the Activity [2] is reported as “Active”.

For `C=CCNc1ccc2c(c1)c(-c1ccc(C(C)C)cc1)nc(=O)n2C(C)C`, the IC50 [1] was 70 nM and the Activity [2] was “Active”.

With `CCCOc1ccc2c(c1)c(-c1ccc(C(C)C)cc1)nc(=O)n2C(C)C` the IC50 [1] was 1100 nM and the Activity [2] was “Active”.

With `CCN(CC)c1ccc2c(c1)c(-c1ccc(C(C)C)cc1)nc(=O)n2C(C)C` the IC50 [1] was 520 nM and the Activity [2] was “Active”.

For `COc1ccc2c(c1)c(-c1ccccc1)nc(=O)n2C(C)C`, the IC50 [1] was greater than 30000 nM and the Activity [2] was “Active”.

With `C#CCOc1ccc2c(c1)c(-c1ccc(C(C)C)cc1)nc(=O)n2Cc1ccccc1` the IC50 [1] was 4.4 nM and the Activity [2] was “Active”.

For `C#CCNc1ccc2c(c1)c(-c1ccc(C(C)C)cc1)nc(=O)n2C(C)C`, the IC50 [1] was 30 nM and the Activity [2] was “Active”.

In the case of `C#CCOc1ccc2c(c1)c(-c1ccc(C(C)C)cc1)nc(=O)n2Cc1cccc(OCCO)c1`, the IC50 [1] is reported as 7.3 nM and the Activity [2] is reported as “Active”.

For `CCCN(CCC)c1ccc2c(c1)c(-c1ccc(C(C)C)cc1)nc(=O)n2C(C)C`, the IC50 [1] was 2900 nM and the Activity [2] was “Active”.

With `CC(C)Oc1ccc2c(c1)c(-c1ccc(C(C)C)cc1)nc(=O)n2C(C)C` the IC50 [1] was 2700 nM and the Activity [2] was “Active”.

In the case of `C#CCOc1ccc2c(c1)c(-c1ccc(C(C)C)cc1)nc(=O)n2Cc1ccc(OC)cc1`, the IC50 [1] is reported as 4.2 nM and the Activity [2] is reported as “Active”.

For `COc1ccc2c(c1)c(-c1ccc(C(C)C)cc1)nc(=O)n2C(C)C`, the IC50 [1] was 1400 nM and the Activity [2] was “Active”.

With `C#CCN(CC#C)c1ccc2c(c1)c(-c1ccc(C(C)C)cc1)nc(=O)n2C(C)C` the IC50 [1] was 120 nM and the Activity [2] was “Active”.

For `C#CCOc1ccc2c(c1)c(-c1ccc(C(C)C)cc1)nc(=O)n2Cc1ccc(C(C)C)cc1`, the IC50 [1] was 27 nM and the Activity [2] was “Active”.

With `C#CCOc1ccc2c(c1)c(-c1ccc(C(C)C)cc1)nc(=O)n2Cc1ccc(OC)c(OCC)c1` [ATF-936] the IC50 [1] was 1.4 nM and the Activity [2] was “Active”.

In the case of `C#CCOc1ccc2c(c1)c(-c1ccc(C(C)C)cc1)nc(=O)n2Cc1cccc(NC(=O)CN2CCN(C)CC2)c1`, the solubility [3] is reported as greater than 200 µg/mL, the IC50 [1] is reported as 2.4 nM and the Activity [2] is reported as “Active”. The solubility [4] was 20 µg/mL (≈ 35.5 µM) and the bioavailability [5] was 1%.

In the case of `C#CCOc1ccc2c(c1)c(-c1ccc(C(C)C)cc1)nc(=S)n2Cc1cccc(OCCO)c1`, the IC50 [1] is reported as 0.4 nM and the Activity [2] is reported as “Active”.

With `C=CCN(C)c1ccc2c(c1)c(-c1ccc(C(C)C)cc1)nc(=O)n2C(C)C` the IC50 [1] was 230 nM and the Activity [2] was “Active”.

With `COc1ccc2c(c1)c(-c1ccc(C(C)(C)C)cc1)nc(=O)n2C(C)C` the IC50 [1] was 2100 nM and the Activity [2] was “Active”.

In the case of `C#CCOc1ccc2c(c1)c(-c1ccc(C(C)C)cc1)nc(=O)n2Cc1cccc(C)c1`, the IC50 [1] is reported as 1.8 nM and the Activity [2] is reported as “Active”.

With `COc1ccc2c(c1)c(-c1ccc(-c3ccccc3)cc1)nc(=O)n2C(C)C` the IC50 [1] was 5500 nM and the Activity [2] was “Active”.
